Patent publication US20220354764A1, “METHODS FOR PROMOTING HAIR GROWTH” (Follica, Inc., priority 2018, published 2022)

Assays:
[1] = test system: adult males with androgenetic alopecia (AGA); test: Hair count by macrophotography after needling device treatment plus minoxidil (Example 1); assay type: in vivo, human; conditions: needling device plus 2%/5% MTS, 12 weeks; comparison: 12% increase in Olsen 2002 and 2007
From the text: A macrophotography procedure as referred to herein includes identifying the designated photography site, clipping hair within targeted photography site to a length of 1 mm, and creating a needlestick tattoo in the center of the targeted photography site for future orientation (pressure was applied until any bleeding stops), mapping the position of the tattoo, and recording the measurements on the provided documentation. The procedure further includes using the tattoo as a reference point take the first Baseline photograph without the contact plate, and again, using the tattoo as a reference point, performing remaining Baseline photography with the contact plate. From the identified designated photography site, the width of each hair is determined using an electronic caliber measurement. All hairs greater than […] are classified as terminal hairs. […]
A macrophotography procedure as described above was carried out for each subject, using a single, circular 1.9 cm^2 site in the leading edge of an actively balding area of the vertex as the designated photography site. Total Area Hair Count (TAHC), Target Area Hair Width (TAHW) and Target Area Hair Density/Darkness (TAHD) were assessed via quantitative image analysis to determine non-vellus hair count (primary and secondary endpoint) and total hair count (non-vellus and vellus hair, secondary endpoint). […]

[2] = Minoxidil blood serum concentration after needling device treatment plus 2%/5% MTS (Example 1); assay type: in vivo, human
Method: A multicenter randomized study was conducted to assess the safety and efficacy of treatment methods using a needling device in conjunction with minoxidil in adult males with androgenetic alopecia (AGA). The study involved 14 subjects, male, age 18-40 years, with a diagnosis of androgenetic alopecia. Data for 46 additional subjects is being gathered. The subjects were randomized and then completed treatment across 12 weeks (total of 3, 6, or 12 treatments with the needling device per randomization assignment, n=20 per arm). A final evaluation was conducted on Day 85 with no additional follow up required.
On Day 0, subjects were randomized to receive treatment with the needling device on a weekly (12 treatments), bi-weekly (6 treatments), or monthly (once every 4 weeks, for 3 total treatments) basis for 12 weeks, in a 1:1:1 ratio according to a centrally maintained randomization table. Treatment of the vertex (including transitional areas) with the needling device was initiated on Day 1.
Subjects in the monthly arm received needling device treatment once every 4 weeks, for 3 procedures total (e.g., needling device treatment on Days 1, 29, 57). Subjects in the bi-weekly arm received needling device treatment once every 2 weeks, for 6 procedures total (e.g., needling device treatment on Days 1, 15, 29, 43, 57, and 71). Subjects in the weekly arm received needling device treatment once every week, for 12 procedures total (e.g., needling device treatment on Days 1, 8, 15, 22, 29, 36, 43, 50, 57, 64, 71, and 78).
During needling treatments, the translation speed of the device, which is the speed at which the needling device was glided over the affected skin area, was 2 cm/second, while keeping the device perpendicular to the surface to help achieve a needle strike of 0.8 mm (+/−0.2 mm) micro-needling depth. The device needle array has 12 needles and the number of array oscillations per second was set at 120. The treatment width was 0.9 cm. Two overlapping passes were made in vertical and horizontal directions. As a result, 1600 needle strikes per cm^2 were performed. The micro-needling device was glided across the affected area of the skin such that each pass across the area of skin aligned with the prior pass across the skin, without gaps of skin between the passes, in a “mow the lawn” approach. Each pass of the micro-needling device started with a gliding start and a smooth retraction of the device from the skin area following each pass. The micro-needling device was applied to the skin area with consistent, light pressure, allowing the device to glide along the skin. The configuration of needles in the needle array consists of 2 offset rows of 6 microneedles.
A post-treatment visit was required following each subject's first treatment with the needling device across all study arms to confirm wound closure. The post-treatment visit was performed 24-36 hours following the first treatment with the needling device. If adequate wound closure and skin normality was not achieved, the subject would return for a second post-treatment visit 24-36 hours following the first post-treatment visit. Once adequate wound closure was confirmed, subjects were provided study drug to be applied in accordance with the instructions provided herein (vertex, including transitional areas). The very first application of study drug was performed in-clinic during the first post-treatment visit in which wound closure is confirmed. […]

## Nc1cc(N2CCCCC2)nc(N)[n+]1[O-] [minoxidil]
[1]
  subjects showing an increase in non-vellus target area hair count greater than prior large minoxidil studies: 79%
[2]; Day 1, needling device plus MTS regimen
  serum level average, Day 1: 1.29 ng/mL
[2]; Day 29, needling device plus MTS regimen
  serum level average, Day 29: 0.99 ng/mL
[2]; Day 57, needling device plus MTS regimen
  serum level average, Day 57: 0.79 ng/mL
[2]; Day 85, final study visit, needling device plus MTS regimen
  serum level average, Day 85: 0.65 ng/mL
[2]; individual maximum, needling device plus 2%/5% MTS step-up
  maximum serum level recorded in the study: 5.5 ng/mL
